Laboratory results published in patent USRE47078E1, “Polymorphic forms of N-[4-(trifluoromethyl)benzyl]-4-methoxybutyramide” (Laboratorio Farmaceutico C.T. S.R.L., priority 2007, dated 2018).
In brackets after ≈: the same amount, converted by molar mass. Like-named read-outs stand apart in the source and are kept apart here.

Key:
[1] = tested on: Sardinian Alcohol preferring rats (sP); experiment: Spontaneous alcohol intake in non deprived sP rats; format: in vivo, rat
Method: (§1) Tests were carried out in Sardinian Alcohol preferring rats (sP), i.e. a rodent line genetically selected for their spontaneous alcohol consume. These animals were adopted as the main specific animal model in the research program due to the fact that these rats (kept in a free-choice regimen between water and a 10% ethanol solution) consume large amounts of alcohol (6-7 g/Kg/day), sharing a great preference for […] (80-100%).
(§2) Under the standard, these rats are subjected to homecage two-bottle free choice regimen between 10% alcohol and water with unlimited access (24 h/day) and they show these features: daily intake of about 6 g/Kg of alcohol; preference ratio (alcohol solution vs total fluids) above 80%; fractioning of daily alcohol intake in 3-4 binges; achievement of BALs (Blood Alcohol Levels) above 50 mg % at each binge; induction of pharmaceutical effects (anxiolysis, motor stimulation) and regulation by a central, hedonic set-point mechanism.
1. Spontaneous Alcohol Intake in Non Deprived sP Rats
According to this model, the alcohol intake in a two bottles free-choice regimen represents the “active drinking” phase of human alcoholism. Therefore the tested active compounds should decrease the propension of rats to consume alcohol. […] In FIG. 8A the results of a single experiment are shown. Specifically 10, 20, 25 and 50 mg/kg doses of polymorphic Form A were administered and the alcohol intake was evaluated.

[2] = tested on: Sardinian Alcohol preferring rats (sP); experiment: Alcohol Deprivation Effect in deprived sP rats; format: in vivo, rat
Method: as §1, §2
2. Alcohol Deprivation Effect in Deprived sP Rats
To further characterize the anti-alcohol effect of polymorphic Form A, this compound was evaluated on the Alcohol Deprivation Effect (ADE). […] Intake was measured 1 hour after lights off.

[3] = tested on: conscious dogs; experiment: Cardiovascular evaluation in conscious dogs (telemetry); format: in vivo, dog
Method: The possible adverse effects of polymorphic Form A on the CNS, cardiovascular, respiratory and immune functions were evaluated in vitro and in vivo (rats and dogs) in different experimental models. In the in vivo tests, the tested compound was always given by single oral administration at the doses of 100, 300 and 1000 mg/kg.
Any possible effect of polymorphic Form A administered at the doses of 100, 300 and 1000 mg/kg by oral route on blood pressure, heart rate and electrocardiogram was evaluated in conscious dogs, free to move about, previously instrumented with telemetric transmitters. In the first part of the study, only telemetric measurements were recorded; the recording of the parameters started at least 24 hours before the administration of the compound and were continued for 24 hours following dosing. In the second part, only the highest dose of 1000 mg/kg was administered and complementary investigations such as 6-lead electrocardiogram (leads I, II, III, aVL, aVR and aVF), blood sampling and observation of the animals were performed before treatment and 3 hours post-treatment.

[4] = Solubility of the polymorphs at different pH (HPLC assay); format: physicochemical; details: for solubility at 24 h / solubility at 30 min: thermodynamic from solid; for solubility at 24 h: read-out: Solubility, After 24 hours; for solubility at 30 min: read-out: Solubility, Initial evaluation
Method: Both samples of powder (Form A and Form B) were used in order to evaluate the solubility properties of the two polymorphs at different pH.
The two samples were tested in the following pH conditions: • Hydrochloric acid buffer at pH=1.2 • Acetic acid at pH=3.0 • Phosphate buffer at pH=3.0 • Phosphate buffer at pH=4.6 • Phosphate buffer at pH=6.0 • Phosphate buffer at pH=7.4 • Alkaline phosphate buffer at pH=8.0
0.5 g of each samples were dissolved in a glass flask using 100 ml of the appropriate buffer. The two samples were then kept under stirring for 30 minutes. If the samples were completed dissolved, 1 additional gram was added in the flask and stirred for 30 minutes. The procedure was repeated till the presence of undissolved product in the bottom of the flask. After such a dissolution procedure, the samples were stored for 24 hours and then the dissolved amounts of Form A and Form B, respectively, were determined by HPLC assay.

[5] = acetic acid, pH 3, aqueous buffer, pH 3.0 (acetic acid)
[6] = alkaline phosphate buffer, pH 8, aqueous buffer, pH 8.0
[7] = buffer at pH 6.8 (buffer type not named for this pH), pH 6.8, aqueous buffer, pH 6.8
[8] = hydrochloric acid buffer, pH 1.2, simulated gastric fluid, pH 1.2
[9] = phosphate buffer, pH 3, aqueous buffer, pH 3.0 (phosphate buffer)
[10] = phosphate buffer, pH 4.6, aqueous buffer, pH 4.6
[11] = phosphate buffer, pH 6, aqueous buffer, pH 6.0
[12] = phosphate buffer, pH 7.4, aqueous buffer, pH 7.4

Structure (SMILES): COCCCC(=O)NCc1ccc(C(F)(F)F)cc1 [Polymorphic Form A, N-[4-(trifluoromethyl)benzyl]-4-methoxybutyramide]
- Alcohol intake ([1]; 10 mg/kg, single experiment of FIG. 8A): significantly reduced alcohol intake
- Alcohol intake ([1]; 10-100 mg/kg, intragastric acute administration): decreases the alcohol intake
- Food intake ([1]; sP rats, data not reported): normal food intake
- Water intake ([1]; sP rats, data not reported): compensatory increase of water intake
- Extra-consume of alcohol (ADE) ([2]; 5 mg/Kg): completely abolish the extra-consume of alcohol
- Alcohol Deprivation Effect (ADE) ([2]; dose range 5-100 mg/Kg, given 30 min before lights off, intake 1 hour after lights off): completely suppressed ADE effect
- Blood pressure, heart rate and electrocardiogram tracing ([3]; 100 mg/kg oral): did not induce relevant changes
- Presence in plasma ([3]; 1000 mg/kg oral, 3 hours after the administration): confirmed the presence
- 6-lead electrocardiogram ([3]; 1000 mg/kg oral, before and 3 hours after dosing): No disturbance in the 6-lead electrocardiogram
- Vomiting ([3]; 1000 mg/kg oral, between 0.5 and 17 hours after dosing): All animals vomited
- Arterial blood pressure (mean, systolic and diastolic) ([3]; 300 and 1000 mg/kg oral): slight increase in arterial blood pressure
- PR and PQ interval durations ([3]; 300 and 1000 mg/kg oral): slight decrease in PR and PQ interval durations
- QT interval duration corrected for heart rate (Sarma's method) ([3]; 300 and 1000 mg/kg oral): slight increase in QT interval duration
- Electrocardiogram (lead II), T wave morphology ([3]; all the doses tested): No disturbance in the electrocardiogram (lead II)
- solubility at 24 h [4, 5]: 160 µg/mL (≈ 582 µM)
- solubility at 30 min [4, 5]: 124 µg/mL (≈ 450 µM)
- solubility at 24 h [4, 6]: 142 µg/mL (≈ 515 µM)
- solubility at 30 min [4, 6]: 134 µg/mL (≈ 486 µM)
- solubility at 24 h [4, 7]: 164 µg/mL (≈ 597 µM)
- solubility at 30 min [4, 7]: 106 µg/mL (≈ 385 µM)
- Differences in solubility / dissolution properties between the two forms ([4]; dissolution tests on each polymorph): have not shown differences in the solubility properties
- solubility at 24 h [4, 8]: 160 µg/mL (≈ 580 µM)
- solubility at 30 min [4, 8]: 153 µg/mL (≈ 554 µM)
- solubility at 24 h [4, 9]: 151 µg/mL (≈ 548 µM)
- solubility at 30 min [4, 9]: 116 µg/mL (≈ 423 µM)
- solubility at 24 h [4, 10]: 145 µg/mL (≈ 528 µM)
- solubility at 30 min [4, 10]: 132 µg/mL (≈ 481 µM)
- solubility at 24 h [4, 11]: 140 µg/mL (≈ 508 µM)
- solubility at 30 min [4, 11]: 118 µg/mL (≈ 430 µM)
- solubility at 24 h [4, 12]: 140 µg/mL (≈ 508 µM)
- solubility at 30 min [4, 12]: 117 µg/mL (≈ 426 µM)
- solubility at 24 h ([4]; water, Water): 164 µg/mL (≈ 596 µM)
- solubility at 30 min ([4]; water, Water): 138 µg/mL (≈ 501 µM)
